According to patent publication US20210121432A1, “Bambuterol for the Treatment of Alzheimer's Disease” (priority 2018, published 2021):

Columns and labels:
[1] = system: rat primary hippocampal neurons injured with Aβ; assay: Plate A: survival and neurite network of MAP-2 hippocampal neurons injured with Aβ1-42; format: cell-based; details: for Neurite length per neuron (total neurite network normalized by the number of neurons): FIG. 2C
Experimental: (§1) Bambuterol, referred to as MR36621 in the experiments was tested on rat primary hippocampal neurons that were injured with Aβ. Donezpil was used as a reference test compound.
(§2) Rat hippocampal neurons were cultured as described by Callizot et al., Operational dissection of β-amyloid cytopathic effects of cultured neurons, J. Neurosci. Res. 2013 May; 91(5): 706-16. Pregnant female rats of 17 days gestation (Rats Wistar; Janvier Labs France) were euthanized using a deep anesthesia with a CO2 chamber followed by a cervical dislocation. Fetuses were removed from the uterus and immediately placed in ice-cold L15 Leibovitz medium with a 2% penicillin (10,000 U/ml) and streptomycin (10 mg/ml) solution (PS) and 1% bovine serum albumin (BSA).
(§3) Hippocampal neurons were treated for 20 min at 37° C. with a trypsin-EDTA solution at a final concentration of 0.05% trypsin and 0.02% EDTA. The dissociation was stopped by adding Dulbecco's modified Eagle's medium (DMEM) with 4.5 g/liter of glucose, containing DNAse I grade II (final concentration 0.5 mg/ml) and 10% fetal calf serum (FCS). Cells were mechanically dissociated by three forced passages through the tip of a 10-ml pipette and then centrifuged at 515×g for 10 min at 4° C.
(§4) The supernatant was discarded, and the pellet was resuspended in a defined culture medium consisting of Neurobasal medium with a 2% solution of B27 supplement, 2 mmol/liter of L-glutamine, 2% of PS solution, and 10 ng/ml of brain-derived neurotrophic factor (BDNF). Viable cells were counted in a Neubauer cytometer, using the trypan blue exclusion test. Cells were seeded at a density of 20,000 per well in 96-well plates precoated with poly-L-lysine and cultured at 37° C. in an air (95%)-CO2 (5%) incubator. The medium was changed every 2 days.
The hippocampal neurons were exposed with A solutions after 17 days of culture. An Aβ1-42 preparation was done following the procedure described by Callizot et al., 2013. Aβ1-42 is a forty-two amino acid form of amyloid β in cerebrospinal fluid and is recognized by persons of ordinary skill in the art as a biomarker for Alzheimer's disease.
Aβ1-42 peptide was dissolved in the defined culture medium mentioned above, at an initial concentration of 40 μM. This solution was gently agitated for 3 days at 37° C. in the dark and immediately used after being properly diluted in culture medium to the concentrations used (20 μM (plate 13) or 2.5 μM (plate 14) corresponding to 2 μM or 0.25 μM of oligomers (AβO) respectively).
Bambuterol was placed in a culture medium and preincubated for 1 hour before Aβ application. An Aβ1-42 preparation was added to a final concentration of 20 or 2.5 μM (=2 μM or 0.25 μM of AβO, evaluated by automatic WB) diluted in control medium in presence of the compound.
Table I identifies two plates that exposed two concentrations of Aβ to different concentrations of bambuterol. The bambuterol was preincubated 1 hour before the application of Aβ.
Twenty-four hours after intoxication, the hippocampal neurons were fixed by a cold solution of ethanol (95%) and acetic acid (5%) for 5 min at −20° C. After permeabilization with 0.1% of saponin, cells were incubated for 2 hours with: • (a) chicken polyclonal antibody anti microtubule-associated-protein 2 (MAP-2), diluted at 1/1000 in PBS containing 1% fetal calf serum and 0.1% of saponin (this antibody allows the specific staining of neuronal cell bodies and neurites; and allow the study of neuronal cell death and neurite network); and • (b) mouse monoclonal antibody anti-phospho Tau (AT100) at dilution of 1/400 in PBS containing 1% fetal calf serum and 0.1% of saponin.
For each condition, multiple pictures (representative of the whole well area) per well were taken using ImageXpress (Molecular Devices) at 20× magnification. All images were taken with the same acquisition parameters. Analyses were performed automatically by using Custom Module Editor® (Molecular Devices). […]

[2] = system: hyperphosphorylated Tau (AT100) in MAP-2 positive neurons; assay: Plate A: phospho Tau (AT100) evaluation in MAP-2 hippocampal neurons injured with Aβ1-42; format: cell-based, rat; details: Aβ 20 μM 24 h, FIG. 2D
Experimental: as §1, §2, §3
as §4, with “days. […]” for “days.”
(§5) Bambuterol was placed in a culture medium and preincubated for 1 hour before Aβ application. An Aβ1-42 preparation was added to a final concentration of 20 or 2.5 μM (=2 μM or 0.25 μM of AβO, evaluated by automatic WB) diluted in control medium in presence of the compound. […]

[3] = system: rat primary hippocampal neurons injured with Aβ; assay: Plate B: synapses evaluation (PSD95/SYN) in hippocampal neurons injured with Aβ1-42; format: cell-based; details: Aβ 2.5 μM 24 h, FIG. 3
Experimental: as §1
Rat hippocampal neurons were cultured as described by Callizot et al., Operational dissection of β-amyloid cytopathic effects of cultured neurons, J. Neurosci. Res. 2013 May; 91(5): 706-16. Pregnant female rats of 17 days gestation (Rats Wistar; Janvier Labs France) were euthanized using a deep anesthesia with a CO2 chamber followed by a cervical dislocation. […]
The supernatant was discarded, and the pellet was resuspended in a defined culture medium consisting of Neurobasal medium with a 2% solution of B27 supplement, 2 mmol/liter of L-glutamine, 2% of PS solution, and 10 ng/ml of brain-derived neurotrophic factor (BDNF). Viable cells were counted in a Neubauer cytometer, using the trypan blue exclusion test. […]
as §5
The following endpoints were assessed: • Total number of synapses (overlapping between PSD95/SYN).

Row | SMILES | Neuronal survival (number of MAP-2 positive neurons) ([1]; Aβ 20 μM 24 h, Donepezil 1 μM, FIG. 2A) | Total neurite network (MAP-2 positive neurons) ([1]; Aβ 20 μM 24 h, Donepezil 1 μM, FIG. 2B) | Neurite length per neuron (total neurite network normalized by the number of neurons) ([1]; Aβ 20 μM 24 h, Donepezil 1 μM) | Hyperphosphorylation of Tau (AT100) ([2]; Donepezil 1 μM) | Number of synapses (overlapping PSD95/SYN) ([3]; Donepezil 1 μM) | Total neurite network (MAP-2 positive neurons) ([1]; Aβ 20 μM 24 h, all investigated doses of bambuterol (1 nM to 1 μM), FIG. 2B) | Neurite length per neuron (total neurite network normalized by the number of neurons) ([1]; Aβ 20 μM 24 h, bambuterol 1 nM to 1 μM) | Neuronal survival (number of MAP-2 positive neurons) ([1]; Aβ 20 μM 24 h, bambuterol highest doses 500 nM and 1 μM, FIG. 2A) | Neuronal survival (number of MAP-2 positive neurons) ([1]; Aβ 20 μM 24 h, bambuterol low doses 1 nM to 100 nM, preincubated 1 h, FIG. 2A) | Dose of maximal effect on neurite network ([1]; Aβ 20 μM 24 h, bell-shape curve, FIG. 2B) [nM] | Dose of maximal effect on neuronal survival ([1]; Aβ 20 μM 24 h, bell-shaped curve, FIG. 2A) [nM] | Effects of bambuterol compared with Donepezil (summary of the examples) ([1]; bambuterol at a dose of 10 nM, hippocampal neurons injured with Aβ 1-42, overall statement over all readouts) | Hyperphosphorylation of Tau (AT100) ([2]; bambuterol all investigated doses (1 nM to 1 μM)) | Dose of maximal effect on hyperphosphorylation of Tau ([2]; bell-shape curve) [nM] | Number of synapses (overlapping PSD95/SYN) ([3]; bambuterol from 10 nM to 100 nM)
1 | COc1cc2c(cc1OC)C(=O)C(CC1CCN(Cc3ccccc3)CC1)C2 (stereo not drawn) [Donepezil] | significantly protect neurons from death | significantly preserved almost the whole neurite network | longer | significantly mitigate this hyperphosphorylation | mitigated the loss of synapses | – | – | – | – | – | – | – | – | – | –
2 | CN(C)C(=O)Oc1cc(OC(=O)N(C)C)cc(C(O)CNC(C)(C)C)c1 (stereo not drawn) [bambuterol] | – | – | – | – | – | exerted protective effects on the neurite network | did not change this parameter | did not show any protective effect | significant neuroprotective effects to a similar or higher extent to donepezil | 10 | 10 | comparable, and even greater, to those of Donepezil | significantly reduced the hyperphosphorylation of Tau | 10 | able to preserve the number of synapses
